This test deals with human orexin-2 receptor (Homo sapiens (Human), UniProt O43614). The experiment in a line: FLIPR Ca2+ Flux Assay, orexin-2 receptor. Type of test: cell-based. As to conditions: CHO cells expressing the human orexin-2 receptor; agonist 70 pM Ala-6,12 human orexin-A; read-out: hOX2 FLIPR IC50. As to the method: In a typical experiment the OX1 and OX2 receptor antagonistic activity of the compounds of the present invention was determined in accordance with the following experimental method. For intracellular calcium measurements, Chinese hamster ovary (CHO) cells expressing the rat orexin-1 receptor or the human orexin-2 receptor, are grown in Iscove's modified DMEM containing 2 mM L-glutamine, […], 1% hypoxanthine-thymidine supplement, 100 U/ml penicillin, 100 μg/ml streptomycin and 10% heat-inactivated fetal calf serum (FCS). The cells are seeded at 20,000 cells/well into Becton-Dickinson black 384-well clear bottom sterile plates coated with poly-D-lysine. All reagents are from GIBCO-Invitrogen Corp. The seeded plates are incubated overnight at 37° C. and 5% CO2. Ala-6,12 human orexin-A as the agonist is prepared as a 1 mM stock solution in 1% bovine serum albumin (BSA) and diluted in assay buffer (HBSS containing 20 mM HEPES, 0.1% BSA and 2.5 mM probenecid, pH7.4) for use in the assay at a final concentration of 70 pM. Test compounds are prepared as 10 mM stock solution in DMSO, then diluted in 384-well plates, first in DMSO, then assay buffer. On the day of the assay, cells are washed 3 times with 100 μl assay buffer and then incubated for 60 min (37° C., 5% CO2) in 60 μl assay buffer containing 1 μM Fluo-4AM ester, 0.02% pluronic acid, and 1% BSA. The dye loading solution is then aspirated and cells are washed 3 times with 100 μl assay buffer. 30 μl of that same buffer is left in each well. Within the Fluorescent Imaging Plate Reader (FLIPR, Molecular Devices), test compounds are added to the plate in a volume of 25 μl, incubated for 5 min and finally 25 μl of agonist is added. Fluorescence is measured for each well at 1 second intervals for 5 minutes and the height of each fluorescence peak is compared to the height of the fluorescence peak induced by 70 pM Ala-6,12 orexin-A with buffer in place of antagonist. […] The intrinsic orexin receptor antagonist activity of a compound which may be used in the present invention may be determined by these assays.
Sequence of human orexin-2 receptor (O43614 whole entry): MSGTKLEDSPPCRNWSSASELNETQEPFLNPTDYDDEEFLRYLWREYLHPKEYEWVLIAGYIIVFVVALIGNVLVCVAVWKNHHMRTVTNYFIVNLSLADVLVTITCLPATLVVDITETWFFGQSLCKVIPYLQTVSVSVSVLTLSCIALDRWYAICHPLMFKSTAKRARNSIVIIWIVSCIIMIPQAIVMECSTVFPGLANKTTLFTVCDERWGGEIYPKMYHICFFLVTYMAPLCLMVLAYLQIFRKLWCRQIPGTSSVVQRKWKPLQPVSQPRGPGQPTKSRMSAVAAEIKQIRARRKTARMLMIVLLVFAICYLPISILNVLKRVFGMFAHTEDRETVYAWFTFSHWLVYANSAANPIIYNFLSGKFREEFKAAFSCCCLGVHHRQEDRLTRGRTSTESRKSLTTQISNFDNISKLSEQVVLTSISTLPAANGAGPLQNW
A general note: A change in cytosolic calcium serves as a functional read-out for many receptors and channels.
As to `CCC(C)(O)c1cc([C@@H]2CC[C@@H](C)N(C(=O)c3ccccc3-n3nccn3)C2)on1` (stereo partly drawn) [Example 55, 2-{5-[(3R,6R)-6-Methyl-1-{[2-(2H-1,2,3-triazol-2-yl)phenyl]carbonyl}piperidin-3-yl]isoxazol-3-yl}butan-2-ol], the IC50 (usually the concentration that gives 50% inhibition) is 0.0398 µM.

`C[C@@H]1CC[C@@H](c2cc(C3CCCO3)no2)CN1C(=O)c1ccccc1-n1nccn1` (stereo partly drawn) [Example 56, (2R,5R)-2-Methyl-5-[3-(tetrahydrofuran-2-yl)isoxazol-5-yl]-1-{[2-(2H-1,2,3-triazol-2-yl)phenyl]carbonyl}piperidine]: the IC50 came out at 0.311 µM.

On to `COC(C)(C)c1cc([C@@H]2CC[C@@H](C)N(C(=O)c3ccccc3-n3nccn3)C2)on1` [Example 57, (2R,5R)-5-[3-(1-Methoxy-1-methylethyl)isoxazol-5-yl]-2-methyl-1-{[2-(2H-1,2,3-triazol-2-yl)phenyl]carbonyl}piperidine], for which the concentration for half-maximal inhibition (IC50) was found to be 0.0144 µM.

`C[C@@H]1CC[C@@H](c2cc(C(C)(C)O)sn2)CN1C(=O)c1ccccc1-n1nccn1` [Example 58, 2-{3-[(3R,6R)-6-Methyl-1-{[2-(2H-1,2,3-triazol-2-yl)phenyl]carbonyl}piperidin-3-yl]isothiazol-5-yl}propan-2-ol]: the IC50 came out at 0.0139 µM.

For `C[C@@H]1CC[C@@H](c2cc(C(C)(C)O)sn2)CN1C(=O)c1ccccc1-n1ncnn1` [Example 60, 2-{3-[(3R,6R)-6-Methyl-1-{[2-(2H-tetrazol-2-yl)phenyl]carbonyl}piperidin-3-yl]isothiazol-5-yl}propan-2-ol], the IC50 is 0.0638 µM.

Turning to `C[C@@H]1CC[C@@H](c2cc(C(C)(C)O)sn2)CN1C(=O)c1ccc(F)cc1-n1nccn1` [Example 61, 2-{3-[(3R,6R)-1-{[4-Fluoro-2-(2H-1,2,3-triazol-2-yl)phenyl]carbonyl}-6-methylpiperidin-3-yl]isothiazol-5-yl}propan-2-ol], the IC50 worked out at 0.0186 µM.

On to `C[C@@H]1CC[C@@H](c2cc(C(C)(C)O)sn2)CN1C(=O)c1ccccc1C1(C#N)CC1` [Example 62, 1-[2-({(2R,5R)-5-[5-(1-Hydroxy-1-methylethyl)isothiazol-3-yl]-2-methylpiperidin-1-yl}carbonyl)phenyl]cyclopropanecarbonitrile], for which the half-maximal inhibitory concentration (IC50) came to 0.0191 µM.

On to `C[C@@H]1CC[C@@H](c2cc(C(C)(C)O)sn2)CN1C(=O)c1ccccc1-c1ncccn1` [Example 63, 2-(3-{(3R,6R)-6-Methyl-1-[(2-pyrimidin-2-ylphenyl)carbonyl]piperidin-3-yl}isothiazol-5-yl)propan-2-ol], for which the IC50 was found to be 0.0423 µM.

For `C[C@@H]1CC[C@@H](c2cc(C(C)(C)O)sn2)CN1C(=O)c1ccsc1-c1ncccn1` [Example 64, 2-(3-{(3R,6R)-6-Methyl-1-[(2-pyrimidin-2-ylthiophen-3-yl)carbonyl]piperidin-3-yl}isothiazol-5-yl)propan-2-ol], the 50% inhibitory concentration (IC50) stood at 0.0368 µM.

For `C[C@@H]1CC[C@@H](c2cc(C(C)(C)O)sn2)CN1C(=O)c1cscc1-c1ncccn1` [Example 65, 2-(3-{(3R,6R)-6-Methyl-1-[(4-pyrimidin-2-ylthiophen-3-yl)carbonyl]piperidin-3-yl}isothiazol-5-yl)propan-2-ol], the IC50 is 0.0468 µM.

For the molecule `C[C@@H]1CC[C@@H](c2cc(C(C)(C)O)sn2)CN1C(=O)c1cscc1-n1nccn1` [Example 66, 2-{3-[(3R,6R)-6-Methyl-1-{[4-(2H-1,2,3-triazol-2-yl)thiophen-3-yl]carbonyl}piperidin-3-yl]isothiazol-5-yl}propan-2-ol], the 50% inhibitory concentration (IC50) turned out to be 0.0211 µM.

Turning to `COC(=O)c1ccccc1C(=O)N1C[C@H](c2cc(C(C)(C)O)sn2)CC[C@H]1C` [Example 67, Methyl 2-({(2R,5R)-5-[5-(1-hydroxy-1-methylethyl)isothiazol-3-yl]-2-methylpiperidin-1-yl}carbonyl)benzoate], the 50% inhibitory concentration (IC50) is 0.0436 µM.

On to `C[C@@H]1CC[C@@H](c2cc(C(C)(C)O)sn2)CN1C(=O)c1ccccc1OC(F)(F)F` [Example 68, 2-{3-[(3R,6R)-6-Methyl-1-{[2-(trifluoromethoxy)phenyl]carbonyl}piperidin-3-yl]isothiazol-5-yl}propan-2-ol], for which the 50% inhibitory concentration (IC50) stood at 0.0228 µM.

In the case of `C[C@@H]1CC[C@@H](c2cc(C(C)(C)O)sn2)CN1C(=O)c1cccnc1OCC(F)F` [Example 69, 2-{3-[(3R,6R)-1-{[2-(2,2-Difluoroethoxy)pyridin-3-yl]carbonyl}-6-methylpiperidin-3-yl]isothiazol-5-yl}propan-2-ol], the 50% inhibitory concentration (IC50) was determined as 0.0428 µM.

With `COCCc1ccccc1C(=O)N1C[C@H](c2cc(C(C)(C)O)sn2)CC[C@H]1C` [Example 70, 2-{3-[(3R,6R)-1-{[2-(2-methoxyethyl)phenyl]carbonyl}-6-methylpiperidin-3-yl]isothiazol-5-yl}propan-2-ol], the half-maximal inhibitory concentration (IC50) came out at 0.935 µM.
